Read-outs that look alike come from different tables or passages of the source. Starred links: 1 amine or outer side, 2 acyl side, 3 side chain; linkers in the order of their positions; H or OH if unused. Positions of bridges follow the written chain, without caps; N, C: chain ends. Residues, ends and D or L forms follow the SMILES beside them. *: point of attachment. C18 diacid = O=C(O)CCCCCCCCCCCCCCCCC(=O)*; γGlu = O=C(O)[C@H](CCC(=O)[*:2])N[*:1]; AEEA = NCCOCCOCC(=O)O
Assays:
[1] = PK after i.v. and s.c. administration to Göttingen minipig; conditions: female, in vivo, Göttingen Minipig; for clearance: read-out: CL (ml/hr/kg), Intravenous PK (converted); for bioavailability: s.c. bioavailability, read-out: F (%), Subcutaneous PK
How it was run: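 Female Göttingen minipigs (6-12 months, ~22 kg) and domestic LYD pigs (4-5 months, ~80 kg) given CNP compounds i.v. (30-60 or 15-43 nmol/kg) or s.c. neck (55-62 or 20-30 nmol/kg) via catheter/pen. EDTA plasma sampled up to 14 days, CNP and cGMP by LC-MS; non-compartmental PK, F from dose-normalized AUC s.c./i.v.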

mouse metatarsal bones = assay: Mouse metatarsal bone dissection and culture (ex vivo bone growth); assay type: cell-based, mouse (NMRI); conditions: 100 nM, n=8
Protocol: The purpose of this study was to evaluate bone growth after administration of CNP compounds in an ex vivo mouse model.
Procedure: One-day old mouse pups (NMRI, Javier Labs France) were euthanised prior to dissection. All applicable international and internal Novo Nordisk guidelines for care and use of animals were followed. The three middle metatarsal bones were dissected out from each hind paw. The dissected bones were placed in 24-well cell culture plates and cultured in 400 μl a-Minimum Essential Media supplemented with 0.2% BSA, 1% Pen/Strep at 37° C. and 5% CO2. The bones from all animals were randomised into a control group and six CNP compound-treated groups (100 nM; n=8). The medium was changed every 2-3 days. All compounds were formulated according to the principles described in General Methods of Preparation—Method G. Compounds 9435 and 9483 were formulated in A) 5 mM sodium acetate, 250 mM glycerol, pH 4.0 while compounds 9384, 9407, 9480 and 9482 were formulated in B) 8 mM sodium phosphate, 250 mM glycerol, pH 7.4.
Digital pictures were captured on day 0, 4, 7, 11, and 14 using a digital camera attached to a Nikon microscope. The length of each metatarsal bone was measured using ImageJ software and increase in bone length was expressed as percentage change from the length measured at the day of dissection (Mean (SD)).
In Table 27, metatarsal bones were isolated from mice and cultured for up to 14 days. Length was measured every 3-4 days throughout the study and expressed as percentage change from day 0 (Mean (SD)). Statistically significant differences are indicated compared to control group (two-way ANOVA).

[2] = iv, i.v., read-out: T½, iv (converted)
[3] = sc, s.c., read-out: T½, sc (converted)

SMILES | clearance ([1]; iv, i.v.) | half-life [1, 2] | bioavailability ([1]; sc) | half-life [1, 3] | Increase in bone length, mean (%) change from day 0 (mouse metatarsal bones; day 4 in culture) | Increase in bone length, mean (%) change from day 0 (mouse metatarsal bones; day 7 in culture) | Increase in bone length, mean (%) change from day 0 (mouse metatarsal bones; day 11 in culture) | Increase in bone length, mean (%) change from day 0 (mouse metatarsal bones; day 14 in culture)
CC[C@H](C)[C@@H]1NC(=O)[C@H](CCCNC(=N)N)NC(=O)[C@H](CC(=O)O)NC(=O)[C@H](CC(C)C)NC(=O)[C@@H]2CCCN2C(=O)[C@H](CC(C)C)NC(=O)CNC(=O)[C@H](Cc2ccccc2)NC(=O)[C@@H](NC(=O)CNC(=O)[C@H](CCC(N)=O)NC(=O)[C@H](CO)NC(=O)CNC(=O)CNC(=O)[C@H](CCCCN)NC(=O)[C@H](CCCCN)NC(=O)[C@H](CCC(N)=O)NC(=O)[C@H](C)NC(=O)CNC(=O)[C@H](CCCCN)NC(=O)[C@H](Cc2ccc(O)cc2)NC(=O)COCCOCCNC(=O)COCCOCCNC(=O)COCCOCCNC(=O)COCCOCCNC(=O)CC[C@H](NC(=O)CC[C@H](NC(=O)CCCCCCCCCCCCCCCCC(=O)O)C(=O)O)C(=O)O)CSSC[C@@H](C(=O)O)NC(=O)CNC(=O)[C@H](CC(C)C)NC(=O)CNC(=O)[C@H](CO)NC(=O)[C@H](CC(C)C)NC(=O)[C@H](CO)NC(=O)CNC1=O [Compound 9435] ({C18 diacid-γGlu-γGlu-AEEA-AEEA-AEEA-AEEA}-YKGAQKKGGSQGCFGLPLDRIGSLSGLGC-OH; disulfide 13-29) | 1.02 mL/h/kg | 77 h | 77% | 82 h | – | – | – | –
CC[C@H](C)[C@@H]1NC(=O)[C@H](CCCNC(=N)N)NC(=O)[C@H](CC(=O)O)NC(=O)[C@H](CC(C)C)NC(=O)[C@@H]2CCCN2C(=O)[C@H](CC(C)C)NC(=O)CNC(=O)[C@H](Cc2ccccc2)NC(=O)[C@@H](NC(=O)CNC(=O)[C@H](CCC(N)=O)NC(=O)[C@H](CO)NC(=O)[C@H](CC(C)C)NC(=O)CNC(=O)[C@H](CCCCN)NC(=O)[C@H](CCCCN)NC(=O)[C@H](CCC(N)=O)NC(=O)[C@H](C)NC(=O)CNC(=O)[C@H](CCCCN)NC(=O)[C@H](Cc2ccc(O)cc2)NC(=O)COCCOCCNC(=O)COCCOCCNC(=O)COCCOCCNC(=O)COCCOCCNC(=O)CC[C@H](NC(=O)CC[C@H](NC(=O)CC[C@H](NC(=O)CCCCCCCCCCCCCCCCC(=O)O)C(=O)O)C(=O)O)C(=O)O)CSSC[C@@H](C(=O)O)NC(=O)CNC(=O)[C@H](CC(C)C)NC(=O)CNC(=O)[C@H](CO)NC(=O)[C@H](CC(C)C)NC(=O)[C@H](CO)NC(=O)CNC1=O [Compound 9480] ({C18 diacid-γGlu-γGlu-γGlu-AEEA-AEEA-AEEA-AEEA}-YKGAQKKGLSQGCFGLPLDRIGSLSGLGC-OH; disulfide 13-29) | 1.13 mL/h/kg | 74 h | 87% | 67 h | – | – | – | –
CC[C@H](C)[C@@H]1NC(=O)[C@H](CCCNC(=N)N)NC(=O)[C@H](CC(=O)O)NC(=O)[C@H](CC(C)C)NC(=O)[C@@H]2CCCN2C(=O)[C@H](CC(C)C)NC(=O)CNC(=O)[C@H](Cc2ccccc2)NC(=O)[C@@H](NC(=O)CNC(=O)[C@H](CO)NC(=O)[C@H](CO)NC(=O)[C@H](CC(C)C)NC(=O)CNC(=O)[C@H](CCCCN)NC(=O)[C@H](CCCCN)NC(=O)[C@H](CCC(N)=O)NC(=O)[C@H](C)NC(=O)CNC(=O)[C@H](CCCCN)NC(=O)[C@H](Cc2ccc(O)cc2)NC(=O)[C@H](CCCCN)NC(=O)[C@H](CCCNC(=N)N)NC(=O)[C@H](C)NC(=O)[C@H](CCC(N)=O)NC(=O)[C@@H]2CCCN2C(=O)[C@H](Cc2c[nH]cn2)NC(=O)[C@H](CCC(=O)O)NC(=O)[C@H](CCC(N)=O)NC(=O)CC[C@H](NC(=O)CC[C@H](NC(=O)CC[C@H](NC(=O)CC[C@H](NC(=O)CC[C@H](NC(=O)CCCCCCCCCCCCCCCCC(=O)O)C(=O)O)C(=O)O)C(=O)O)C(=O)O)C(=O)O)CSSC[C@@H](C(=O)O)NC(=O)CNC(=O)[C@H](CC(C)C)NC(=O)CNC(=O)[C@H](CO)NC(=O)[C@H](CC(C)C)NC(=O)[C@H](CO)NC(=O)CNC1=O [Compound 9482] ({C18 diacid-γGlu-γGlu-γGlu-γGlu-γGlu}-QEHPQARKYKGAQKKGLSSGCFGLPLDRIGSLSGLGC-OH; disulfide 21-37) | 1.07 mL/h/kg | 89 h | 89% | 84 h | – | – | – | –
CC[C@H](C)[C@@H]1NC(=O)[C@H](CCCNC(=N)N)NC(=O)[C@H](CC(=O)O)NC(=O)[C@H](CC(C)C)NC(=O)[C@@H]2CCCN2C(=O)[C@H](CC(C)C)NC(=O)CNC(=O)[C@H](Cc2ccccc2)NC(=O)[C@@H](NC(=O)CNC(=O)[C@H](CCC(N)=O)NC(=O)[C@H](CO)NC(=O)CNC(=O)CNC(=O)[C@H](CCCCN)NC(=O)[C@H](CCCCN)NC(=O)[C@H](CCC(N)=O)NC(=O)[C@H](C)NC(=O)CNC(=O)[C@H](CCCCN)NC(=O)[C@H](Cc2ccc(O)cc2)NC(=O)COCCOCCNC(=O)COCCOCCNC(=O)COCCOCCNC(=O)COCCOCCNC(=O)CC[C@H](NC(=O)CC[C@H](NC(=O)CCCCCCCCCCCCCCCCC(=O)O)C(=O)O)C(=O)O)CSSC[C@@H](C(=O)O)NC(=O)CNC(=O)[C@H](CC(C)C)NC(=O)CNC(=O)[C@H](CO)NC(=O)[C@H](CC(C)C)NC(=O)[C@H](CO)NC(=O)CNC1=O [compound 9435] ({C18 diacid-γGlu-γGlu-AEEA-AEEA-AEEA-AEEA}-YKGAQKKGGSQGCFGLPLDRIGSLSGLGC-OH; disulfide 13-29; C-terminus assumed) | – | – | – | – | 36.2% | 47.3% | 53.9% | 59.2%
CC[C@H](C)[C@@H]1NC(=O)[C@H](CCCNC(=N)N)NC(=O)[C@H](CC(=O)O)NC(=O)[C@H](CC(C)C)NC(=O)[C@@H]2CCCN2C(=O)[C@H](CC(C)C)NC(=O)CNC(=O)[C@H](Cc2ccccc2)NC(=O)[C@@H](NC(=O)CNC(=O)[C@H](CCC(N)=O)NC(=O)[C@H](CO)NC(=O)[C@H](CC(C)C)NC(=O)CNC(=O)[C@H](CCCCN)NC(=O)[C@H](CCCCN)NC(=O)[C@H](CCC(N)=O)NC(=O)[C@H](C)NC(=O)CNC(=O)[C@H](CCCCN)NC(=O)[C@H](Cc2ccc(O)cc2)NC(=O)COCCOCCNC(=O)COCCOCCNC(=O)COCCOCCNC(=O)COCCOCCNC(=O)CC[C@H](NC(=O)CC[C@H](NC(=O)CC[C@H](NC(=O)CCCCCCCCCCCCCCCCC(=O)O)C(=O)O)C(=O)O)C(=O)O)CSSC[C@@H](C(=O)O)NC(=O)CNC(=O)[C@H](CC(C)C)NC(=O)CNC(=O)[C@H](CO)NC(=O)[C@H](CC(C)C)NC(=O)[C@H](CO)NC(=O)CNC1=O [compound 9480] ({C18 diacid-γGlu-γGlu-γGlu-AEEA-AEEA-AEEA-AEEA}-YKGAQKKGLSQGCFGLPLDRIGSLSGLGC-OH; disulfide 13-29) | – | – | – | – | 33.1% | 43.9% | 49.2% | 52.1%

Reference: patent US20240209028A1, “CNP COMPOUNDS” (priority 2022, published 2024)
